Measurements published in ChEMBL document CHEMBL1201862, “PubChem BioAssay data set” (2004).
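Five concentrations, 48 hours, 96-well plates. GI50 = concentration required for 50% inhibition of growth.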 Calls of active or inactive are those of the source. Cut-off read from the data, not from the text of the source: active = GI50 up to about 1.1 µM and inactive = higher.

How the values were obtained:
Assay in all cases: NCI tumour cell line growth inhibition, 48 h
A549 = test system: A549
CCRF-CEM = test system: CCRF-CEM
COLO 205 = test system: COLO 205
EKVX = test system: EKVX
HL-60 = test system: HL-60
IGROV-1 = test system: IGROV-1
M14 = test system: M14
Malme-3M = test system: Malme-3M
OVCAR-4 = test system: OVCAR-4
OVCAR-8 = test system: OVCAR-8
SF-268 = test system: SF-268
SF-539 = test system: SF-539
SK-OV-3 = test system: SK-OV-3
U-251 = test system: U-251
UACC-62 = test system: UACC-62
UO-31 = test system: UO-31
RPMI-8226 = test system: RPMI-8226

Measured: GI50

COc1ccc(C2=Nc3ccccc3N=C(SC)C2)cc1
inactive: A549 95.1 µM | CCRF-CEM 13.2 µM | COLO 205 51.3 µM | EKVX 41 µM | HL-60 16.3 µM | IGROV-1 > 100 µM | M14 59.7 µM | Malme-3M > 100 µM | OVCAR-4 48.5 µM | OVCAR-8 59.3 µM | SF-268 > 100 µM | SF-539 > 100 µM | SK-OV-3 > 100 µM | U-251 32.2 µM | UACC-62 > 100 µM | UO-31 47.3 µM

C/C(CC(=O)Nc1ccc([N+](=O)[O-])cc1)=N\Nc1ccc([N+](=O)[O-])cc1[N+](=O)[O-]
inactive: A549 44.7 µM | CCRF-CEM 45 µM | COLO 205 89.7 µM | EKVX > 100 µM | HL-60 31.9 µM | IGROV-1 71.8 µM | M14 > 100 µM | Malme-3M > 100 µM | OVCAR-8 > 100 µM | RPMI-8226 56.4 µM | SF-268 62.1 µM | SF-539 41 µM | SK-OV-3 > 100 µM | U-251 > 100 µM | UACC-62 49 µM | UO-31 20.6 µM

C[C@]12CCC(=O)C(O)=C1CC[C@@H]1C2CC[C@]2(C)Nc3c(cnn3-c3ccccc3)CC12 (stereo partly specified)
inactive: A549 > 100 µM | CCRF-CEM 37.2 µM | EKVX > 100 µM | HL-60 23.8 µM | IGROV-1 > 100 µM | M14 > 100 µM | Malme-3M 91 µM | OVCAR-4 96.2 µM | OVCAR-8 64.4 µM | RPMI-8226 27.4 µM | SF-539 67.6 µM | SK-OV-3 > 100 µM | U-251 > 100 µM | UACC-62 77.6 µM | UO-31 26.3 µM

O=c1[nH]c(=O)n(C2OC(CO)C(O)C2O)cc1OCc1ccccc1 (stereo unspecified)
inactive: A549 > 87.3 µM | CCRF-CEM > 60.5 µM | COLO 205 > 64.7 µM | EKVX > 100 µM | HL-60 > 52.8 µM | IGROV-1 > 100 µM | M14 > 100 µM | Malme-3M > 100 µM | OVCAR-4 > 100 µM | OVCAR-8 > 77.6 µM | RPMI-8226 > 57.9 µM | SF-268 > 100 µM | SF-539 > 100 µM | SK-OV-3 > 100 µM | U-251 > 58.2 µM | UACC-62 > 100 µM | UO-31 > 100 µM

c1ccc2c(c1)CCCc1cc3ccccc3nc1-2
inactive: A549 > 100 µM | CCRF-CEM 94.6 µM | COLO 205 29.9 µM | EKVX > 100 µM | IGROV-1 > 100 µM | M14 > 100 µM | Malme-3M > 100 µM | OVCAR-4 68.1 µM | OVCAR-8 > 100 µM | RPMI-8226 31 µM | SF-268 92.5 µM | SF-539 > 100 µM | SK-OV-3 38.7 µM | U-251 > 100 µM | UACC-62 > 100 µM | UO-31 > 100 µM

O=C(NCCO)c1ccc([N+](=O)[O-])cc1
inactive: A549 > 100 µM | CCRF-CEM > 100 µM | COLO 205 > 100 µM | EKVX > 100 µM | HL-60 > 100 µM | IGROV-1 > 100 µM | M14 > 100 µM | Malme-3M > 100 µM | OVCAR-8 > 100 µM | RPMI-8226 > 100 µM | SF-268 > 100 µM | SF-539 > 100 µM | SK-OV-3 > 100 µM | U-251 > 100 µM | UACC-62 > 100 µM | UO-31 > 100 µM

O=CC1CCC=CC1NC(=O)OCc1ccccc1 (stereo unspecified)
inactive: A549 > 100 µM | CCRF-CEM 25.9 µM | COLO 205 > 100 µM | EKVX > 100 µM | HL-60 7.14 µM | IGROV-1 > 100 µM | M14 33.9 µM | OVCAR-4 94.6 µM | OVCAR-8 22.7 µM | RPMI-8226 40.5 µM | SF-268 85.5 µM | SF-539 23 µM | SK-OV-3 > 100 µM | U-251 57.5 µM | UACC-62 42.5 µM | UO-31 > 100 µM

O=C1Nc2ccccc2N/C1=C\C(=O)c1ccccc1O
inactive: A549 > 100 µM | CCRF-CEM > 100 µM | COLO 205 > 100 µM | EKVX > 100 µM | HL-60 > 100 µM | IGROV-1 > 100 µM | M14 > 100 µM | Malme-3M > 100 µM | OVCAR-4 > 100 µM | OVCAR-8 > 100 µM | RPMI-8226 > 100 µM | SF-268 > 100 µM | SK-OV-3 > 100 µM | U-251 > 100 µM | UACC-62 > 100 µM | UO-31 > 100 µM

CC(=O)Nc1ccc(S(=O)(=O)N/N=C/CN2C(=O)c3ccccc3C2=O)cc1
inactive: A549 > 100 µM | CCRF-CEM > 100 µM | COLO 205 > 100 µM | EKVX > 100 µM | HL-60 > 100 µM | IGROV-1 > 100 µM | M14 > 100 µM | Malme-3M > 100 µM | OVCAR-4 > 100 µM | OVCAR-8 > 100 µM | RPMI-8226 > 100 µM | SF-268 > 100 µM | SF-539 > 100 µM | U-251 > 100 µM | UACC-62 > 100 µM | UO-31 > 100 µM

O=c1c2cccc3cccc(c4oc5c6cccc7cccc(c(=O)c5c14)c76)c32
inactive: A549 2.06 µM | CCRF-CEM 5.47 µM | COLO 205 10.9 µM | EKVX 12.2 µM | HL-60 9.18 µM | IGROV-1 16.9 µM | M14 12.4 µM | Malme-3M 12.5 µM | OVCAR-8 11.1 µM | RPMI-8226 12.8 µM | SF-268 13 µM | SF-539 15.8 µM | SK-OV-3 28.9 µM | U-251 12.7 µM | UACC-62 12.8 µM | UO-31 13.5 µM

Cc1cc(N(CCC#N)CCC#N)ccc1/C=C(\NC(=O)/C=C/c1ccccc1)NC(=O)Nc1ccccc1C
inactive: A549 > 100 µM | CCRF-CEM > 100 µM | COLO 205 > 100 µM | EKVX 86.1 µM | HL-60 > 100 µM | IGROV-1 68.4 µM | M14 > 100 µM | Malme-3M > 100 µM | OVCAR-4 26.8 µM | OVCAR-8 30.2 µM | RPMI-8226 > 100 µM | SF-268 24.7 µM | SF-539 38.1 µM | U-251 17.1 µM | UACC-62 46.1 µM | UO-31 > 100 µM

CCCCCCCCC(O)C#CC(N)=O (stereo unspecified)
inactive: A549 14.7 µM | CCRF-CEM 15.5 µM | EKVX 11.4 µM | HL-60 10.8 µM | M14 12.3 µM | Malme-3M 16.7 µM | OVCAR-4 2.51 µM | OVCAR-8 9.42 µM | RPMI-8226 7.48 µM | SF-539 12.5 µM | U-251 8.34 µM | UACC-62 5.16 µM | UO-31 10 µM

O=C1NC2(CCCCCC2)C2CCCCCCC12O (stereo unspecified)
inactive: A549 > 100 µM | CCRF-CEM > 100 µM | COLO 205 > 100 µM | EKVX > 100 µM | HL-60 > 100 µM | IGROV-1 > 100 µM | M14 > 100 µM | Malme-3M > 100 µM | OVCAR-4 > 100 µM | OVCAR-8 > 100 µM | SF-268 > 100 µM | SF-539 > 100 µM | SK-OV-3 > 100 µM | U-251 > 100 µM | UACC-62 > 100 µM | UO-31 > 100 µM

CC(=O)SC(SC(C)=O)SC(C)=O
inactive: A549 37.2 µM | CCRF-CEM 22.5 µM | COLO 205 27.3 µM | EKVX > 100 µM | HL-60 51.3 µM | IGROV-1 > 100 µM | M14 > 100 µM | Malme-3M > 100 µM | OVCAR-4 > 100 µM | OVCAR-8 > 100 µM | SF-268 > 100 µM | SF-539 > 100 µM | SK-OV-3 > 100 µM | U-251 > 100 µM | UACC-62 84.1 µM | UO-31 > 100 µM

Cc1ccc(-c2cc(=O)c3cc(C)c(C)c(C(=O)O)c3o2)cc1N
inactive: A549 > 100 µM | CCRF-CEM > 100 µM | COLO 205 > 100 µM | EKVX > 100 µM | IGROV-1 > 100 µM | M14 > 100 µM | Malme-3M > 100 µM | OVCAR-4 > 100 µM | OVCAR-8 > 100 µM | RPMI-8226 > 100 µM | SF-268 > 100 µM | SF-539 > 100 µM | SK-OV-3 > 100 µM | U-251 > 100 µM | UACC-62 > 100 µM | UO-31 > 100 µM

CCN(CC)CCN1CCc2c([nH]c3ccccc23)C1c1cccnc1 (stereo unspecified)
inactive: A549 > 100 µM | CCRF-CEM 94.6 µM | EKVX > 100 µM | HL-60 99.3 µM | IGROV-1 > 100 µM | M14 > 100 µM | OVCAR-4 > 100 µM | OVCAR-8 > 100 µM | RPMI-8226 > 100 µM | SF-268 > 100 µM | SF-539 > 100 µM | SK-OV-3 > 100 µM | U-251 > 100 µM | UACC-62 > 100 µM | UO-31 37.2 µM

Cc1cc2c(=O)c3ccccc3[nH]c2c(C(=O)O)c1C
inactive: A549 > 100 µM | CCRF-CEM > 100 µM | COLO 205 > 100 µM | EKVX 66.5 µM | HL-60 70.8 µM | IGROV-1 > 100 µM | OVCAR-4 > 100 µM | OVCAR-8 > 100 µM | RPMI-8226 > 100 µM | SF-539 > 100 µM | U-251 > 100 µM | UACC-62 > 100 µM | UO-31 43.9 µM

COc1ccc(O)cc1C(O)c1ccccc1 (stereo unspecified)
inactive: A549 > 100 µM | CCRF-CEM > 100 µM | COLO 205 > 100 µM | EKVX > 100 µM | HL-60 > 100 µM | IGROV-1 > 100 µM | M14 > 100 µM | Malme-3M > 100 µM | OVCAR-4 > 100 µM | OVCAR-8 > 100 µM | SF-268 > 100 µM | SF-539 > 100 µM | SK-OV-3 > 100 µM | U-251 > 100 µM | UACC-62 > 100 µM | UO-31 > 100 µM
